Results reported in PMC10820527, “Synthesis, Characterization, and Investigation of Anti-Inflammatory and Cytotoxic Activities of Novel Thiourea Derivatives of Naproxen” (Pharmaceutics, 2023).

Assays:
healthy male rats = test: Acute oral toxicity assessment (OECD Guidelines No. 423); assay type: in vivo, rat; conditions: single per os dose 10 mg/kg, sacrifice after 14 days, (absolute organ weight × 100%)/body weight
Description: The acute oral toxicity was assessed in healthy male rats (n = 24, three rats per group, body weight 180–200 g) according to a previously established protocol and the OECD Guidelines No. 423 [37, 38].
Animals were randomly assigned to the following groups: control group—rats that received single dose of 1% DMSO and experimental groups—rats that received compounds 8–14 per os in the single dose of 10 mg/kg dissolved in 1% DMSO. All rats were fasted prior to administration of compounds and during 3 h following the treatment.
Afterwards, rats were kept in single cages and observed once daily during 14 days for clinical signs of toxicity. All behavioral changes and any signs of toxicity were recorded (fur and skin, urination (color), feces consistency, eyes, salivation, any alterations in behavior pattern). Additionally, food and water intake and the body weight were measured daily over 14 days. After accomplishing the monitoring period, rats were sacrificed, and organ weight (liver, kidney, stomach, and heart) was recorded. Relative organ weight was calculated as follows: (absolute organ weight × 100%)/body weight of rat on the day of sacrifice(1)

MDA-MB-231 = test: MTT cytotoxicity assay, MDA-MB-231; assay type: cell-based, human; conditions: for IC50: mean ± SD
Description: Three cancer cell lines (MDA-MB-231, HCT116 and HeLa; i.e., human breast cancer cells, human colorectal cancer cells, and human cervical cancer cells, respectively), and one non-malignant fibroblast MRC-5 cell line (control) were used in this study. The American Type Cell Collection (ATCC, Manassas, VA, USA) provided all examined cell lines. The cells were grown in a complete medium made up of high-glucose DMEM media supplemented with 10% fetal bovine serum and […] L-glutamine (both from Sigma-Aldrich, USA). The cells were cultured in 25 cc flasks (Thermo Fischer Scientific, Waltham, MA, USA) at 37 °C with 100% humidity in a 5% CO2 atmosphere.
The MTT test was used to assess the cytotoxicity of compounds 1–14 [44]. The cytotoxicity of naproxen was also investigated due to its clinical use and structural similarity. Throughout the exponential development period, cells were taken from culture flasks and counted, and 5 × 10^3 cells/well were planted into 96-well culture plates. Following that, the cell lines were treated with varying doses of the investigated chemicals (1–14), naproxen ([…]), and fresh complete media as a control. All evaluated cells were incubated for 24, 48, and 72 h at 37 °C in an environment containing 5% CO2 and 100% humidity. Following incubation, each well’s culture media was taken out, each well received an addition of MTT solution at a final concentration of 0.5 mg/mL, and the cells were left to incubate for an additional four hours. The MTT solution was then withdrawn carefully, and the formazan crystals were dissolved in DMSO. After shaking the plates for 10 min, absorbance at 595 nm was measured using a multiplate reader (Zenyth 3100, Anthos Labtec Instruments, Salzburg, Austria). All concentrations of the tested compounds were performed in three separate wells of the microtiter plates and in three separate experiments. The results were reported as a ratio to the control value, untreated cells. IC50 values were also determined using Microsoft Office Excel 2021. The percentage of viable cells was estimated by dividing the readout absorbance value in the wells containing treated cells by the average absorbance value measured in the wells containing untreated cells, and multiplying the result by 100 [44]. % of the viable cells = ((absorbance of treated cell-absorbance of blank)/(absorbance of untreated cell-absorbance of blank)) × 100(3)

COX-2 = biological target: T1, COX-2 (Homo sapiens, UniProt P35354); test: Fluorometric COX-2 inhibitor screening kit; assay type: biochemical; conditions: mean of two measurements with standard error, read-out: COX-2 Percent of Inhibition
T1 construct: purchased Abcam
T1 sequence (P35354 18-604): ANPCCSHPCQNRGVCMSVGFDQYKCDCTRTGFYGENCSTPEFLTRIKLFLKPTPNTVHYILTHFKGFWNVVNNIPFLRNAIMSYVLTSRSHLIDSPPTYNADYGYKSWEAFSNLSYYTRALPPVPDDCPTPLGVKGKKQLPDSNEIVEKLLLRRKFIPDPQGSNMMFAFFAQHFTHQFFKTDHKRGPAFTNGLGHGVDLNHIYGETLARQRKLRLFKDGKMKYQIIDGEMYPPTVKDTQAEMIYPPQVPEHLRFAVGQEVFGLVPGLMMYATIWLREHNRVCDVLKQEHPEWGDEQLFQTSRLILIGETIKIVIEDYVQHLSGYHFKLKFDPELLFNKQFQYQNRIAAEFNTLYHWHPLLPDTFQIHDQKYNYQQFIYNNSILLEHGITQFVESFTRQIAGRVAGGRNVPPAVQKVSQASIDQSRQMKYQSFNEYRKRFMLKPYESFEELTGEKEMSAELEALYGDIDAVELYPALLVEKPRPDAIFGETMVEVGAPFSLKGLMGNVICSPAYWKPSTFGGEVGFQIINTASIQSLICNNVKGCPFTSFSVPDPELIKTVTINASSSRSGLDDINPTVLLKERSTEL
Description: The COX-2 and 5-LOX inhibitory potential of the tested compounds was evaluated using a fluorometric COX-2 and 5-LOX inhibitor screening kit (Abcam, Cambridge, UK). These tests are based on determining the presence of prostaglandin G2 (a product of COX enzyme activity) or an intermediate generated by the enzyme 5-LOX, using fluorometric detection. The mentioned experiments were performed according to the manufacturer’s instructions.
For the determination of COX-2 inhibitory potential of tested compounds, stock solutions (5 mM in DMSO) were diluted with the same solvent (test solutions). The test solutions were further diluted with COX assay buffer by mixing 2 µL of the corresponding test solution and 8 µL of COX assay buffer. For the preparation of inhibitory control (IC), celecoxib (2 µL) and COX assay buffer (8 µL) were mixed. Solvent control (SC) was prepared by mixing DMSO (2 µL) and the COX assay buffer (8 µL), enzyme control (EC) was 10 µL of COX assay buffer, while the samples (S) were 10 µL of diluted test solutions. IC, SC, EC, and S were transferred into corresponding wells. For the determination of 5-LOX inhibitory potential of tested compounds, stock solutions of the same concentration (5 mM) were prepared in DMSO. These solutions were further diluted with the same solvent to obtain the test solutions, which were added into the appropriate wells (2 µL). EC, SC, and IC were prepared by adding 2 µL of the assay buffer, DMSO, and zileuton into corresponding wells, respectively.
The fluorescence of the samples was measured kinetically at 25 °C (COX-2: Ex/Em = 535/587 nm, during 10 min; 5-LOX: Ek/Em = 500/536 nm during 20 min) using a Synergi LX multi-mode microplate reader (BioTek, Shoreline, WA, USA).

[1] = Homo sapiens, MDA-MB-231, 24 h, 24 h
[2] = Homo sapiens, MDA-MB-231, 48 h, 48 h
[3] = Homo sapiens, MDA-MB-231, 72 h, 72 h

COC(=O)[C@H](Cc1ccccc1)NC(=S)NC(=O)[C@@H](C)c1ccc2cc(OC)ccc2c1 [Compound 13, Methyl (((S)-2-(6-methoxynaphthalen-2-yl)propanoyl)carbamothioyl)phenylalaninate]
Relative organ weight, Heart (healthy male rats): 0.30 ± 0.04 | Relative organ weight, Kidney (healthy male rats): 0.28 ± 0.06 | Relative organ weight, Liver (healthy male rats): 3.09 ± 0.27 | Relative organ weight, Stomach (healthy male rats): 0.50 ± 0.06 | IC50 (MDA-MB-231; [1]): > 200 µM | IC50 (MDA-MB-231; [2]): > 200 µM | IC50 (MDA-MB-231; [3]): 99.5 ± 8.2 µM | inhibition at 10 µM (COX-2): 23.1 ± 9.83%

COc1ccc2cc([C@H](C)C(=O)NC(=S)Nc3ccccc3)ccc2c1 [Compound 8, (S)-2-(6-methoxynaphthalen-2-yl)-N-(phenylcarbamothioyl)propanamide]
Relative organ weight, Heart (healthy male rats): 0.31 ± 0.01 | Relative organ weight, Kidney (healthy male rats): 0.32 ± 0.02 | Relative organ weight, Liver (healthy male rats): 2.65 ± 0.15 | Relative organ weight, Stomach (healthy male rats): 0.51 ± 0.06 | IC50 (MDA-MB-231; [1]): > 200 µM | IC50 (MDA-MB-231; [2]): > 200 µM | IC50 (MDA-MB-231; [3]): > 200 µM | inhibition at 10 µM (COX-2): 36.2 ± 16.4%

COc1ccc2cc([C@H](C)C(=O)NC(=S)Nc3ccccc3C)ccc2c1 [Compound 10, (S)-2-(6-methoxynaphthalen-2-yl)-N-(o-tolylcarbamothioyl)propanamide]
Relative organ weight, Heart (healthy male rats): 0.34 ±0.04 | Relative organ weight, Kidney (healthy male rats): 0.31 ± 0.04 | Relative organ weight, Liver (healthy male rats): 2.67 ± 0.15 | Relative organ weight, Stomach (healthy male rats): 0.58 ± 0.04 | Cytotoxic effect against the MDA-MB-231 cell line (in words) (MDA-MB-231): moderate cytotoxic effect | IC50 (MDA-MB-231; 72 h): 42.2 ± 9.8 µM | IC50 (MDA-MB-231; [1]): 101 ± 11.2 µM | IC50 (MDA-MB-231; [2]): 70.5 ± 8.3 µM | IC50 (MDA-MB-231; [3]): 42 ± 9 µM | inhibition at 10 µM (COX-2): 12.6 ± 4.99%

COc1ccc2cc([C@H](C)C(=O)NC(=S)Nc3ccc(C)cc3)ccc2c1 [Compound 9, (S)-2-(6-methoxynaphthalen-2-yl)-N-(p-tolylcarbamothioyl)propanamide]
Relative organ weight, Heart (healthy male rats): 0.29 ± 0.03 | Relative organ weight, Kidney (healthy male rats): 0.29 ± 0.03 | Relative organ weight, Liver (healthy male rats): 3.01 ± 0.27 | Relative organ weight, Stomach (healthy male rats): 0.56 ± 0.03 | IC50 (MDA-MB-231; [1]): > 200 µM | IC50 (MDA-MB-231; [2]): > 200 µM | IC50 (MDA-MB-231; [3]): 112 ± 18.1 µM | inhibition at 10 µM (COX-2): 26.8 ± 6.07%

COc1ccc2cc([C@H](C)C(=O)NC(=S)Nc3ccccc3OC)ccc2c1 [Compound 11, (S)-2-(6-methoxynaphthalen-2-yl)-N-((2-methoxyphenyl)carbamothioyl)propanamide]
Relative organ weight, Heart (healthy male rats): 0.32 ± 0.02 | Relative organ weight, Kidney (healthy male rats): 0.33 ± 0.05 | Relative organ weight, Liver (healthy male rats): 2.83 ± 0.20 | Relative organ weight, Stomach (healthy male rats): 0.54 ± 0.05 | IC50 (MDA-MB-231; [1]): > 200 µM | IC50 (MDA-MB-231; [2]): > 200 µM | IC50 (MDA-MB-231; [3]): > 200 µM | inhibition at 10 µM (COX-2): 16.2 ± 13.7%

COC(=O)[C@H](Cc1c[nH]c2ccccc12)NC(=S)NC(=O)[C@@H](C)c1ccc2cc(OC)ccc2c1 [Compound 14, Methyl (((S)-2-(6-methoxynaphthalen-2-yl)propanoyl)carbamothioyl)tryptophanate]
Relative organ weight, Heart (healthy male rats): 0.31 ± 0.02 | Relative organ weight, Kidney (healthy male rats): 0.29 ± 0.04 | Relative organ weight, Liver (healthy male rats): 2.03 ± 0.42 | Relative organ weight, Stomach (healthy male rats): 0.53 ± 0.04 | IC50 (MDA-MB-231; [1]): > 200 µM | IC50 (MDA-MB-231; [2]): > 200 µM | IC50 (MDA-MB-231; [3]): 117 ± 15.3 µM | inhibition at 10 µM (COX-2): 29.8 ± 12.1%

COc1ccc2cc([C@H](C)C(=O)NC(=S)Nc3ccccc3F)ccc2c1 [Compound 12, (S)-N-((2-fluorophenyl)carbamothioyl)-2-(6-methoxynaphthalen-2-yl)propanamide]
Relative organ weight, Heart (healthy male rats): 0.35 ± 0.03 | Relative organ weight, Kidney (healthy male rats): 0.32 ± 0.04 | Relative organ weight, Liver (healthy male rats): 2.76 ± 0.36 | Relative organ weight, Stomach (healthy male rats): 0.59 ± 0.05 | IC50 (MDA-MB-231; [1]): > 200 µM | IC50 (MDA-MB-231; [2]): > 200 µM | IC50 (MDA-MB-231; [3]): > 200 µM | inhibition at 10 µM (COX-2): 13.8 ± 6.41%
